These results are taken from US20250206730A1 (AUTOTELIC BIO INC., priority 2022, published 2025).

One assay deals with TGF-β signaling. Nature of the assay: Assay for evaluating cellular inhibition of TGF-β signaling, 4T1 (SBE-luc2P) luciferase reporter. In kind it is cell-based. The following applies: Mus musculus, 4T1, 4T1 (SBE-luc2P) transient pool, 0.2% FBS, 2 h pre-treatment, TGF-β1 2 ng/mL 24 h; read-out: IC50 4T1 Cell. The method, boiled down:
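4T1 cells transiently carrying SBE-luc2P (6×10^3/well, 0.2% FBS, ~60% confluence) or HEK293 SBE-reporter stable cells (2.5×10^4/well, 0.5% FBS, ~80% confluence) pre-treated with compound for 2 h. TGF-β1 (2 ng/mL) then added for 24 h at 37 °C; luciferase luminescence read from lysates.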
In general terms: Reporter assays use an easily measured gene product as a stand-in for the process of interest.

The target in the next assay is T1, ALK5 kinase (Homo sapiens, UniProt P36897).
T1 sequence (P36897 34-503): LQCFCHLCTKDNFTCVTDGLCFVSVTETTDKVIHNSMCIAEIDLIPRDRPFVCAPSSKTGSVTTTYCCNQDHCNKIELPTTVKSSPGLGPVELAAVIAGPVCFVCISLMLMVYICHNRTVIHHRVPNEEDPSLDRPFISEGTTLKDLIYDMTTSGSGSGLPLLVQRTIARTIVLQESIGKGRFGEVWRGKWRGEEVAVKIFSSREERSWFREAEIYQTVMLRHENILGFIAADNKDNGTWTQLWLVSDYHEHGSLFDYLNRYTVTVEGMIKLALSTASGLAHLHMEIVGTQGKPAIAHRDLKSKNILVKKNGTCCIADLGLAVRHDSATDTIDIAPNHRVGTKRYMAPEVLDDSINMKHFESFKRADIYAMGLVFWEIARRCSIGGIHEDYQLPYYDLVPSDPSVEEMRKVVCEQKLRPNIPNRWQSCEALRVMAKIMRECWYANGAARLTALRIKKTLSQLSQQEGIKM
Description: LanthaScreen Eu Kinase Binding Assay. The following applies: Kinase Tracer 178, Eu-anti-GST Antibody, read-out: IC50 Enzyme. The essentials: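 Compound (1% DMSO final) preincubated 30 min at RT with GST-tagged ALK5, then Eu-anti-GST antibody and Kinase Tracer 178 added for 60 min at RT. TR-FRET read at 340 nm excitation; 665/615 nm emission ratio falls as compound binding rises.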
A general note: Time-resolved FRET reads energy transfer from a long-lived donor to a nearby acceptor.

For orientation: IC50 means the point on the concentration scale where inhibition reaches its midpoint. On to `Nc1nc(-c2ccc3ccccc3c2)c(Oc2ccnc(Nc3cccc(S(N)(=O)=O)c3)c2)s1` [A-234, 3-((4-((2-Amino-4-(naphthalen-2-yl)thiazol-5-yl)oxy)pyridin-2-yl)amino)benzenesulfonamide], for which the IC50 in the assay on TGF-β signaling and on ALK5 kinase was over 100 nM throughout.
In the case of `CN(C)c1nc(-c2ccc3ccccc3c2)c(Oc2ccnc(Nc3cccc(S(N)(=O)=O)c3)c2)s1` [A-235, 3-((4-((2-(Dimethylamino)-4-(naphthalen-2-yl)thiazol-5-yl)oxy)pyridin-2-yl)amino)benzenesulfonamide], the half-inhibitory concentration (IC50) in the assay on TGF-β signaling and on ALK5 kinase was over 100 nM in each case.
With `Cc1nc(-c2ccccc2)c(Oc2ccnc(Nc3cccc(S(N)(=O)=O)c3)n2)s1` [A-238, 3-((4-((2-Methyl-4-phenylthiazol-5-yl)oxy)pyrimidin-2-yl)amino)benzenesulfonamide], the IC50 in the assay on TGF-β signaling and at ALK5 kinase was under 100 nM in each case.
On to `Cc1cccc(-c2nc(N)sc2Oc2ccnc(Nc3ccc(C(=O)O)cc3)c2)n1` [A-248, 4-((4-((2-Amino-4-(6-methylpyridin-2-yl)thiazol-5-yl)oxy)pyridin-2-yl)amino)benzoic acid], for which the IC50 in the assay with TGF-β signaling was over 100 nM; at ALK5 kinase, under 100 nM.
On to `Cc1cccc(-c2nc(N)sc2Oc2ccnc(Nc3cccc(C(=O)O)c3)c2)n1` [A-249, 3-((4-((2-Amino-4-(6-methylpyridin-2-yl)thiazol-5-yl)oxy)pyridin-2-yl)amino)benzoic acid], for which the IC50 with TGF-β signaling and at ALK5 kinase was under 100 nM each time.
Take `CCc1nc(-c2cccc(C)n2)c(Oc2ccnc(Nc3cccc(S(N)(=O)=O)c3)c2)s1` [A-250, 3-((4-((2-Ethyl-4-(6-methylpyridin-2-yl)thiazol-5-yl)oxy)pyridin-2-yl)amino)benzenesulfonamide]: the IC50 with TGF-β signaling and on ALK5 kinase was under 100 nM in each case.
Turning to `CCc1nc(-c2cccc(C)n2)c(Oc2ccnc(Nc3ccc(C(N)=O)cn3)c2)s1` [A-251, 6-((4-((2-Ethyl-4-(6-methylpyridin-2-yl)thiazol-5-yl)oxy)pyridin-2-yl)amino)nicotinamide], the IC50 in the assay on TGF-β signaling and at ALK5 kinase was under 100 nM throughout.
In the case of `CCc1nc(-c2cccc(C)n2)c(Oc2ccnc(Nc3ccc(C(=O)O)cn3)c2)s1` [A-252, 6-((4-((2-Ethyl-4-(6-methylpyridin-2-yl)thiazol-5-yl)oxy)pyridin-2-yl)amino)nicotinic acid], the IC50 with TGF-β signaling and on ALK5 kinase was under 100 nM each time.
On to `CCc1nc(-c2cccc(C)n2)c(Oc2ccnc(Nc3ccc(C(=O)NC)cn3)c2)s1` [A-253, 6-((4-((2-Ethyl-4-(6-methylpyridin-2-yl)thiazol-5-yl)oxy)pyridin-2-yl)amino)-N-methylnicotinamide], for which the IC50 with TGF-β signaling and at ALK5 kinase was under 100 nM in each case.
As to `CCc1nc(-c2cccc(C)n2)c(Oc2ccnc(Nc3cccc(C(=O)O)n3)c2)s1` [A-254, 6-((4-((2-Ethyl-4-(6-methylpyridin-2-yl)thiazol-5-yl)oxy)pyridin-2-yl)amino)picolinic acid], the concentration for half-maximal inhibition (IC50) in the assay on TGF-β signaling was under 100 nM; at ALK5 kinase, over 100 nM.
Consider `CCc1nc(-c2cccc(C)n2)c(Oc2ccnc(Nc3cccc(C(N)=O)n3)c2)s1` [A-255, 6-((4-((2-Ethyl-4-(6-methylpyridin-2-yl)thiazol-5-yl)oxy)pyridin-2-yl)amino)picolinamide], for which the IC50 in the assay on TGF-β signaling and on ALK5 kinase was under 100 nM each time.
`CCc1nc(-c2cccc(C)n2)c(Oc2ccnc(Nc3cccc(C(=O)NC)n3)c2)s1` [A-256, 6-((4-((2-Ethyl-4-(6-methylpyridin-2-yl)thiazol-5-yl)oxy)pyridin-2-yl)amino)-N-methylpicolinamide]: the IC50 in the assay with TGF-β signaling and on ALK5 kinase was under 100 nM in each case.
As to `CCc1nc(-c2cccc(C)n2)c(Oc2ccnc(Nc3cccc(C(=O)O)c3)c2)s1` [A-257, 3-((4-((2-Ethyl-4-(6-methylpyridin-2-yl)thiazol-5-yl)oxy)pyridin-2-yl)amino)benzoic acid], the IC50 in the assay on TGF-β signaling and at ALK5 kinase was under 100 nM throughout.
Regarding `CCc1nc(-c2cccc(C)n2)c(Oc2ccnc(Nc3cccc(C(N)=O)c3)c2)s1` [A-258, 3-((4-((2-Ethyl-4-(6-methylpyridin-2-yl)thiazol-5-yl)oxy)pyridin-2-yl)amino)benzamide], the IC50 with TGF-β signaling and at ALK5 kinase was under 100 nM each time.
Take `CCc1nc(-c2cccc(C)n2)c(Oc2ccnc(Nc3cccc(C(=O)NC)c3)c2)s1` [A-259, 3-((4-((2-Ethyl-4-(6-methylpyridin-2-yl)thiazol-5-yl)oxy)pyridin-2-yl)amino)-N-methylbenzamide]: the IC50 in the assay with TGF-β signaling and at ALK5 kinase was under 100 nM each time.
Consider `CCc1nc(-c2cccc(C)n2)c(Oc2ccnc(Nc3cncc(C(=O)O)c3)c2)s1` [A-260, 5-((4-((2-Ethyl-4-(6-methylpyridin-2-yl)thiazol-5-yl)oxy)pyridin-2-yl)amino)nicotinic acid], for which the IC50 is over 100 nM with TGF-β signaling and under 100 nM at ALK5 kinase.
For `CCc1nc(-c2cccc(C)n2)c(Oc2ccnc(Nc3cncc(C(N)=O)c3)c2)s1` [A-261, 5-((4-((2-Ethyl-4-(6-methylpyridin-2-yl)thiazol-5-yl)oxy)pyridin-2-yl)amino)nicotinamide], in that order: under 100 nM and under 100 nM.
Regarding `CCc1nc(-c2cccc(C)n2)c(Oc2ccnc(Nc3cncc(C(=O)NC)c3)c2)s1` [A-262, 5-((4-((2-Ethyl-4-(6-methylpyridin-2-yl)thiazol-5-yl)oxy)pyridin-2-yl)amino)-N-methylnicotinamide], the half-inhibitory concentration (IC50) with TGF-β signaling and on ALK5 kinase was under 100 nM throughout.
Regarding `CCc1nc(-c2cccc(C)n2)c(Oc2ccnc(Nc3ccnc(C(=O)O)c3)c2)s1` [A-263, 4-((4-((2-Ethyl-4-(6-methylpyridin-2-yl)thiazol-5-yl)oxy)pyridin-2-yl)amino)picolinic acid], the IC50 was over 100 nM with TGF-β signaling and under 100 nM at ALK5 kinase.
In the case of `CCc1nc(-c2cccc(C)n2)c(Oc2ccnc(Nc3ccnc(C(=O)NC)c3)c2)s1` [A-265, 4-((4-((2-Ethyl-4-(6-methylpyridin-2-yl)thiazol-5-yl)oxy)pyridin-2-yl)amino)-N-methylpicolinamide], the concentration for half-maximal inhibition (IC50) with TGF-β signaling and on ALK5 kinase was under 100 nM each time.
With `CCc1nc(-c2cccc(C)n2)c(Oc2ccnc(Nc3cc(C(=O)O)ccn3)c2)s1` [A-266, 2-((4-((2-Ethyl-4-(6-methylpyridin-2-yl)thiazol-5-yl)oxy)pyridin-2-yl)amino)isonicotinic acid], the IC50 in the assay with TGF-β signaling is over 100 nM; at ALK5 kinase it was under 100 nM.
The like results for `CCc1nc(-c2cccc(C)n2)c(Oc2ccnc(Nc3cc(C(N)=O)ccn3)c2)s1` [A-267, 2-((4-((2-Ethyl-4-(6-methylpyridin-2-yl)thiazol-5-yl)oxy)pyridin-2-yl)amino)isonicotinamide] were, in that order, under 100 nM and under 100 nM.
The like results for `CCc1nc(-c2cccc(C)n2)c(Oc2ccnc(Nc3cc(C(=O)NC)ccn3)c2)s1` [A-268, 2-((4-((2-Ethyl-4-(6-methylpyridin-2-yl)thiazol-5-yl)oxy)pyridin-2-yl)amino)-N-methylisonicotinamide] were, in that order, under 100 nM and under 100 nM.
For `Cc1cccc(-c2nc(C3CC3)sc2Oc2ccnc(Nc3cccc(C(N)=O)c3)c2)n1` [A-274, 3-((4-((2-Cyclopropyl-4-(6-methylpyridin-2-yl)thiazol-5-yl)oxy)pyridin-2-yl)amino)benzamide], in that order: under 100 nM and under 100 nM.
